In assay [1] the test system is HepG2 cells. The assay can be described thus: Glucose production assay in HepG2 cells. The format is cell-based, human. Particulars: tested doses, serum-free glucose production media, 48 hr (FIG. 1). The protocol: Equal numbers of Human HepG2 or rat H4IIE cells (1-1.5×10^5 cells/well) were seeded on 96 well plates in 10% FBS-containing media for 24 hr. Cells were then washed twice with PBS, and treated with various concentrations of compounds, metformin or insulin in 100 μl of glucose production media (glucose-free, phenol red-free DMEM media supplemented with 20 mM sodium lactate, 2 mM sodium pyruvate and 5 mM HEPES) at 37° C. for 24 hr (H4IIE cells only) or 48 hr (HepG2 cell only). Cells were also incubated with 0.24% DMSO (the maximal volume of DMSO solvent used in the experiments).
After the above treatments, 50 μl of culture media were collected, and subjected to glucose analysis using Molecular Probes Amplex Red glucose assay kit (Cat #A22189) according to the manufacturer's protocol. Cell numbers or viability in the culture plate after the above compound treatments were determined using Promega's CellTiter96® AQueous One Solution Cell Proliferation Assay kits, according to the manufacturer's protocol and instructions. In brief, after removing 50 μl of culture media for glucose assay, cells were incubated with AQueous One solution (25 μl stock solution and 50 μl prewarmed PBS/per well) at 37° C. for 1 hour, and the absorbance of OD490 nm in each sample was determined by the Bio-Tek microplate reader. Cell viability in culture wells were determined by the subtraction of OD490 nm in cultured cells with the OD490 nm in plain culture media (without seeding of cells). Glucose production in the culture cells were obtained by normalizing the glucose concentration in culture media by cell viability in each well. At least 3 samples per each treatment were examined for the above analysis. Data are presented as Mean±SEM of those samples. Experiments were repeated at least twice.
The half maximal inhibitory concentration (IC50 values) of Compound #43 or metformin for the inhibition of glucose production were determined using the ED50 Plus v1.0 online software.

The subject of assay [2] is C2C12 cells. Particulars: each individually, mouse skeletal muscle myoblast C2C12 cells; cited from earlier work.
Assay [3] has as its system G6pc. The assay can be described thus: QRT-PCR of basal G6pc expression in AML-12 cells. The format is cell-based, mouse. To be noted: 300 ppb selenium (3.8 μM), serum-free, 24 hr (FIG. 10A). How it is done: For RNA analysis of basal G6pc expression (without the presence of diabetic stimuli: 8-CPT/Dex), amplified AML-12 and HepG2 cells were cultured on 24-well plates (0.5-2×10^5 cells/well) overnight in 10% FBS ITS- and Dex-free DMEM/F12 media and 10% FBS EMEM media, respectively. These cells were rinsed twice with PBS to remove residual sera. Then, the PBS-washed HepG2 cells were treated without or with insulin or Compound #43 in serum-free EMEM media for 40 hr. In some experiments, the PBS-washed AML-12 cells were incubated without or with Compound #43 or other selenium compounds in serum-free DMEM/F12 media for 24 hours. In other experiments, amplified AML-12 cells were pretreated without or with Compound #43 (150 or 300 ppb) in 10% FBS but ITS/Dex-free DMEM/F12 media for 24 hr. After 24 hr treatment, AML-12 cells were washed twice with PBS (to remove any residual serum in the culture) and then treated with insulin, Compound #43 or both, in the serum-free DMEM/Dex media for 6 hr.
(§1) Total RNA from saline- or selenium compound-treated Lepr^db/db mice was isolated using a Qiagen RNAeasy RNA isolation kit according to the Manufacturer's protocol. Total RNA from cultured cells was isolated using Trizol (Invitrogen) according to the manufacturer's protocol, and then incubated with DNase I to remove any potential contaminating genomic DNA. RNA samples were subjected to real-time PCR (QRT-PCR) analysis using Applied-Bioscience's RT kit and predesigned Taqman probes (Invitrogen), as described previously (Lan et al EMBO J 2003). Data were normalized by Actin B (Actb) mRNA levels in each sample, and are presented as mean±SEM of 3-5 samples.

The subject of assay [4] is Tau. Particulars: AD brains; cited from earlier work.
Assay [5] concerns Glut4. As to the kind of experiment: QRT-PCR of Glut4 mRNA in livers of Lepr^db/db mice. The format is in vivo, mouse. To be noted: 25 μg selenium/kg ip daily, 52 days (FIG. 15). How it is done:
Male Lepr^db/db mice (C57BL/6J strain, purchased from The Jackson Laboratory) at postnatal day 38 were intraperitoneally injected daily with physiological saline ([…]) containing 0.2% DMSO, Compound #43, or Compound #50 (25 μg selenium of each compound per kilogram body weight, diluted in sterile physiological saline) for 52 days. After treatment, livers were collected and subjected to RNA analysis.
Total liver RNA from saline- or Compound #43-treated Lepr^db/db mice was isolated using a Qiagen RNAeasy RNA isolation kit according to the Manufacturer's protocol. Total RNA from cultured cells was isolated using Trizol (Invitrogen) according to the manufacturer's protocol, and then incubated with DNase I to remove any potential contaminating genomic DNA. RNA samples were subjected to real-time PCR analysis using Applied-Bioscience's RT kit and predesigned Taqman probes (Invitrogen), as described previously (Lan et al EMBO J 2003). Data were normalized by Actin B (Actb) mRNA levels in each sample and are presented as mean±SEM of 3-5 samples.

The subject of assay [6] is Lepr^db/db mice. As to the kind of experiment: Glucose tolerance test in Lepr^db/db mice. Type of assay: in vivo, mouse. How it is done:
Male Lepr^db/db mice at 38 days of age were intraperitoneally (ip) injected daily with physiological saline ([…]) containing 0.2% DMSO, Compound #C, Compound #50, Compound #68, and/or Compound #43 (25 μg selenium or sulfur equivalents of each compound per kilogram body weight, diluted in sterile physiological saline) for periods ranging from 43-90 days. Body weights of the above treated mice were recorded daily using a balance and any visible abnormal animal gross morphology and walking behavior were monitored daily. After the treatments, animals were fasted overnight and then subjected to blood glucose or HbA1c assays, glucose tolerance tests or tissue collections.
For comparative studies of any potential anti-diabetic effects of Compounds #43, #69 and #70, male Lepr^db/db mice at 41 days of age were intraperitoneally (ip) injected daily with physiological saline ([…]) containing 0.2% DMSO, Compound #43, Compound #69, or Compound #70 (25 μg selenium of each compound per kilogram body weight, diluted in sterile physiological saline). After the treatments for 43 days, animals were fasted overnight and then subjected to blood glucose and glucose tolerance tests. After daily treatments of these compounds for 90 days, sera from these animals were collected and then subjected to blood HbA1c assays.
Glucose tolerance tests were performed as described previously (Li et al, Int J Biol Sci 2008; 4:29-36). Briefly, overnight-fasted Lepr^db/db mice after saline or compound treatments were injected intraperitoneally with 2 grams/kg body weight of 20% D-glucose. Blood glucose levels at time 0 (immediately before the injection of glucose), 0.25, 0.5, 1 and 2 hours after injection of glucose were determined using a glucometer with a maximum glucose measurement capacity of 600 mg/dL. Because of this, blood glucose levels over 600 mg/dL were counted as 600 mg/dL in the data analysis.

The test system of assay [7] is G6pc. As to the kind of experiment: QRT-PCR of G6pc mRNA in livers of Lepr^db/db mice. The format is in vivo, mouse. To be noted: 25 μg selenium/kg ip daily, 52 days (FIG. 9). How it is done:
Male Lepr^db/db mice (C57BL/6J strain, purchased from The Jackson Laboratory) at 38-days of age were intraperitoneally injected daily with physiological saline ([…]) containing 0.2% DMSO, Compound #50, or Compound #43 (25 μg selenium equivalent of each compound per kilogram body weight, diluted in the sterile physiological saline) for 52 days. After the treatment, livers were collected and subjected RNA analysis.
as §1

Assay [8] has as its system brain cells. To be noted: cited from earlier work.

SMILES strings stand for the structures.

Regarding `Nc1ncnc2c1ncn2[C@@H]1O[C@H](C[Se]CC[C@H](N)C(=O)O)C(O)C1O` (stereo partly shown) [Compound D, 5′-Selenoadenosyl homocysteine, reference compound], in assay [1], the “effect on glucose production in HepG2 cells” value (shortened to “effect on glucose production”) is reported as “inhibited glucose production”. Further, the “mitochondrial (MT) potential” value in assay [2] is “can enhance mitochondrial (MT) potential”. Further, the “effect on G6pc expression” value in assay [3] was “did not significantly inhibit G6pc expression”. Besides, the Tau hyperphosphorylation entry in assay [4] is recorded as “can inhibit Tau hyperphosphorylation in AD brains”.
Turning to `C[Se]C[C@H]1O[C@@H](n2cnc3c(N)ncnc32)C2OC(=O)OC21` (stereo partly shown) [Compound #50, Adenosine, 5′-Se-methyl-5′-seleno-, cyclic 2′,3′-carbonate], in assay [1], the “effect on glucose production” value is reported as “inhibited glucose production”. Further, the “effect on G6pc expression” value in assay [3] is listed as “did not significantly inhibit G6pc expression”. For the same compound, the “effect on Glut4 mRNA levels in the liver” value in assay [5] is reported as “numerically increased Glut4 mRNA levels”. In assay [6] (FIG. 8A, 43 days treatment), the “blood glucose level at 2 hr after glucose injection” value is listed as “significant decrease of glucose level”; the “blood glucose levels at 0.25, 0.5 and 1 hr after glucose injection” value is listed as “no obvious decrease”. In addition, the “effect on G6pc mRNA levels in the liver” value in assay [7] is given as “slightly, but not significantly, decreased”.
Regarding `C[Se]C[C@H]1O[C@@H](n2cnc3c(N)ncnc32)[C@@H](O)C1O` (stereo partly shown) [Compound C, 5′-Methylselenoadenosine, reference compound], in assay [1], the “effect on glucose production” value was “inhibited glucose production”. Also, the “mitochondrial (MT) potential” value in assay [2] is “can enhance mitochondrial (MT) potential”. The “gluconeogenesis in brain cells” value in assay [8] is given as “can enhance gluconeogenesis in brain cells”. Besides, the “effect on G6pc expression” value in assay [3] is “did not significantly inhibit G6pc expression”. Besides, in assay [6] (25 μg selenium/kg ip daily 43 days from day 38, glucose 2 g/kg (FIG. 8A)), the “glucose tolerance (overall)” value is “did not improve glucose tolerance”. In addition, the Tau hyperphosphorylation result in assay [4] was “can inhibit Tau hyperphosphorylation in AD brains”.

The record behind these values is patent US11613552B2, “Pharmaceutical agents, compositions, and methods relating thereto” (Alltech, Inc., priority 2017, dated 2023).
